Test results from ChEMBL document CHEMBL4418912, “Methods of identifying antagonists of the hTAS2R46 bitter taste receptor” (2014).
Calls of active or inactive are those of the source. No cut-off for these calls is given here.

Legend:
Format in all cases: functional, cell-based
[1] = target: T1, Taste receptor type 2 member 31 (Homo sapiens) (UniProt P59538); experiment: Agonist activity at recombinant human N-terminal rat ST3 receptor-fused TAS2R44 expressed in HEK293T cells co-expressing Galpha16gust44 assessed as increase in intracellular calcium level at 100 uM by FLIPR assay
T1 sequence (whole entry): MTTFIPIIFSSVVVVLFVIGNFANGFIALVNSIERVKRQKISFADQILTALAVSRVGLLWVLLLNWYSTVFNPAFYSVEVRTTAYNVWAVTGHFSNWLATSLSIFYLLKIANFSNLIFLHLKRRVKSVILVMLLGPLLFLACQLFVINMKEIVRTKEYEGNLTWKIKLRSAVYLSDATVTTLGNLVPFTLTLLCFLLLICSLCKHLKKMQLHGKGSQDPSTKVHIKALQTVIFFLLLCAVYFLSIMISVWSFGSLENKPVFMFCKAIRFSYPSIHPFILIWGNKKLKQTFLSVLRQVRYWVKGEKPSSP

[2] = target: T2, Taste receptor type 2 member 16 (Homo sapiens) (UniProt Q9NYV7); experiment: Agonist activity at recombinant human N-terminal rat ST3 receptor-fused TAS2R16 expressed in HEK293T cells co-expressing Galpha16gust44 assessed as increase in intracellular calcium level at 100 uM by FLIPR assay
T2 sequence (whole entry): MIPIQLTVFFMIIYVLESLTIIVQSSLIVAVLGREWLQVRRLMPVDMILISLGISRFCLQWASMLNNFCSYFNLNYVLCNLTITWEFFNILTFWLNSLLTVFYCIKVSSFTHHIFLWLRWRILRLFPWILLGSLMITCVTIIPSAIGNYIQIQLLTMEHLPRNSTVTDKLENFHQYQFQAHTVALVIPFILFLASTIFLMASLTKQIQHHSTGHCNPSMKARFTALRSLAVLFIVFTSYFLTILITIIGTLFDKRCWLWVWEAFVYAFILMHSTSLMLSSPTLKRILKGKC

[3] = target: T3, Taste receptor type 2 member 7 (Homo sapiens) (UniProt Q9NYW3); experiment: Agonist activity at recombinant human N-terminal rat ST3 receptor-fused TAS2R7 expressed in HEK293T cells co-expressing Galpha16gust44 assessed as increase in intracellular calcium level at 100 uM by FLIPR assay
T3 sequence (whole entry): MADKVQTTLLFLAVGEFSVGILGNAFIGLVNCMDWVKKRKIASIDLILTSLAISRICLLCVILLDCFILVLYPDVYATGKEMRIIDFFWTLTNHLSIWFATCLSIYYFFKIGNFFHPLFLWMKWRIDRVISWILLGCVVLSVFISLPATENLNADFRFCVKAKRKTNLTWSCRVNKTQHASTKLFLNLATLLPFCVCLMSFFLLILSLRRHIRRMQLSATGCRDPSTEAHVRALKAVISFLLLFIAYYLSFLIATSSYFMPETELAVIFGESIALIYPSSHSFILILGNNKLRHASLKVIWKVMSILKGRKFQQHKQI

[4] = target: T3, Taste receptor type 2 member 7 (Homo sapiens); experiment: Potentiation of quinine sulfate-induced agonist activity at recombinant human N-terminal rat ST3 receptor-fused TAS2R7 expressed in HEK293T cells co-expressing Galpha16gust44 assessed as increase in intracellular calcium level at 100 uM by FLIPR assay
[5] = target: T4, Taste receptor type 2 member 10 (Homo sapiens) (UniProt Q9NYW0); experiment: (§1) Competitive-antagonist activity at recombinant human N-terminal rat ST3 receptor-fused TAS2R10 expressed in HEK293T cells co-expressing Galpha16gust44 assessed as inhibition of strychnine-induced increase in intracellular calcium level by measuring maximum signal amplitude at 10 uM by FLIPR assay (reference value: 0.42 +/- 0.09 a.u.)
T4 sequence (whole entry): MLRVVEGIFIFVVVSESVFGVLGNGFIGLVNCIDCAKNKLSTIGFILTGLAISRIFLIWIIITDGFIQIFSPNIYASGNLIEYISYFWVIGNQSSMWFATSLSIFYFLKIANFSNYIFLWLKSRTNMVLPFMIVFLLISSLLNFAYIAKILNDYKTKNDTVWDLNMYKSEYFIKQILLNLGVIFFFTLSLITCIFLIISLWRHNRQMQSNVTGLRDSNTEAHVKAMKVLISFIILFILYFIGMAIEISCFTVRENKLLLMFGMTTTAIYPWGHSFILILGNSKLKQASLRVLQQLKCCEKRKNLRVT

[6] = target: Taste receptor type 2 member 60 (Homo sapiens) (UniProt P59551); experiment: Agonist activity at recombinant human N-terminal rat ST3 receptor-fused TAS2R60 expressed in HEK293T cells co-expressing Galpha16gust44 assessed as increase in intracellular calcium level at 100 uM by FLIPR assay
Taste receptor type 2 member 60 (Homo sapiens), sequence (P59551 whole entry, the tested form may be a part): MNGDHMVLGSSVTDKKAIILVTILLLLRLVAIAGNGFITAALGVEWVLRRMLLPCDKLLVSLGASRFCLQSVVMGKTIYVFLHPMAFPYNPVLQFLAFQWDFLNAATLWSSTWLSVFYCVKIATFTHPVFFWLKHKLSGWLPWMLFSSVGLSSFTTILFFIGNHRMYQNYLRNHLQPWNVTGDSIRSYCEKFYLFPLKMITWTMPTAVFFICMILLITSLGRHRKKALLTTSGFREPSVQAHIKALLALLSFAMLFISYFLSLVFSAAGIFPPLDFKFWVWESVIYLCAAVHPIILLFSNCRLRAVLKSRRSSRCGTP

[7] = target: T5, Taste receptor type 2 member 20 (Homo sapiens) (UniProt P59543); experiment: Agonist activity at recombinant human N-terminal rat ST3 receptor-fused TAS2R49 expressed in HEK293T cells co-expressing Galpha16gust44 assessed as increase in intracellular calcium level at 100 uM by FLIPR assay
T5 sequence (whole entry): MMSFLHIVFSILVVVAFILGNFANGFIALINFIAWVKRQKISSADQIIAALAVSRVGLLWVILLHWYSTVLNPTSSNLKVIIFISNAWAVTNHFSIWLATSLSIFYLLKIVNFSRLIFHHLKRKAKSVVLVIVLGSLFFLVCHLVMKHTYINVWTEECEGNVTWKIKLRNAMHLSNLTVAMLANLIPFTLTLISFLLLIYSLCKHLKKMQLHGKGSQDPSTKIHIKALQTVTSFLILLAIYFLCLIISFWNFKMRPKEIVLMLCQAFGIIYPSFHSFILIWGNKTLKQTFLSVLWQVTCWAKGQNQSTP

[8] = target: T4, Taste receptor type 2 member 10 (Homo sapiens); experiment: as §1, with “at 30” for “at 10”
[9] = target: T6, Taste receptor type 2 member 9 (Homo sapiens) (UniProt Q9NYW1); experiment: Agonist activity at recombinant human N-terminal rat ST3 receptor-fused TAS2R9 expressed in HEK293T cells co-expressing Galpha16gust44 assessed as increase in intracellular calcium level at 100 uM by FLIPR assay
T6 sequence (whole entry): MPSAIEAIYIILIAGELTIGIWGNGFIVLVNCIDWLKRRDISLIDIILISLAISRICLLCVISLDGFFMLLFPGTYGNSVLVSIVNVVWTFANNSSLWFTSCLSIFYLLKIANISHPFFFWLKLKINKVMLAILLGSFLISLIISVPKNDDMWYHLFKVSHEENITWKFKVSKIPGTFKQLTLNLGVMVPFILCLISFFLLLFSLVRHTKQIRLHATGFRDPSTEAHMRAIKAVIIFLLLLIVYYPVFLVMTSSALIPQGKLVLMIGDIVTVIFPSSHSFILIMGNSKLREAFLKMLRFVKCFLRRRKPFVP

[10] = target: Taste receptor type 2 member 19 (Homo sapiens) (UniProt P59542); experiment: Agonist activity at recombinant human N-terminal rat ST3 receptor-fused TAS2R48 expressed in HEK293T cells co-expressing Galpha16gust44 assessed as increase in intracellular calcium level at 100 uM by FLIPR assay
Taste receptor type 2 member 19 (Homo sapiens), sequence (P59542 whole entry, the tested form may be a part): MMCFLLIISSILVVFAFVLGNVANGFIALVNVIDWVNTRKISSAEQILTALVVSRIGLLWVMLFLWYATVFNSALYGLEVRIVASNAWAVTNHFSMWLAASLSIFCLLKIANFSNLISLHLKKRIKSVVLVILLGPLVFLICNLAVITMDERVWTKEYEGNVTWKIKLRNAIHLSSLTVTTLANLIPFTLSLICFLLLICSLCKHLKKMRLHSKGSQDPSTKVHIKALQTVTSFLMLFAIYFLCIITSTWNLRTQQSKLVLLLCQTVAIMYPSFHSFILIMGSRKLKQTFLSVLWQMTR

`C/C1=C\C[C@H](O)/C(C)=C/[C@H]2OC(=O)[C@@H](C)[C@@H]2CC1` was tested, and the Activity [1] was “Active”, the Activity [2] was “inactive” and the Activity [3] was “Active”. The Activity [4] was “Active”, the Activity [5] was 0.4 a.u and the Activity [6] was “inactive”. For the same compound, the Activity [7] was “inactive”, the Activity [8] was 0.41 a.u and the Activity [9] was “inactive”. For the same compound, the Activity [10] was “inactive”.
